Test results reported in patent publication US4146719A, “Piperazinyl derivatives of quinoline carboxylic acids” (priority 1977, dated 1979).
Values after ≈ are worked out from the molar mass of the structure shown. “Also recorded” adds a separate entry of the source.

Key:
[1] = test system: Bacillus subtilis PCI 219; assay: Antibacterial activity in vitro, M.I.C., agar dilution streak method; type: cell-based; conditions: Bacillus subtilis, PCI219; Gram +; read-out: M.I.C.
[2] = test system: Streptococcus pyogenes IID 692; assay: as above; type: cell-based; conditions: Streptococcus pyogenes, IID692; Gram +; read-out: M.I.C.
[3] = test system: Diplococcus pneumoniae IID 552; assay: as above; type: cell-based; conditions: Streptococcus pneumoniae, IID552; Gram +; read-out: M.I.C.
[4] = test system: Escherichia coli NIHJ; assay: as above; type: cell-based; conditions: Escherichia coli; Gram -; read-out: M.I.C.
[5] = test system: E. coli ATCC 10536; assay: as above; type: cell-based, Escherichia coli; conditions: Escherichia coli, ATCC10536; Gram -; read-out: M.I.C.
[6] = test system: Proteus vulgaris IFO 3167; assay: as above; type: cell-based; conditions: Proteus vulgaris, IFO3167; Gram -; read-out: M.I.C.
[7] = test system: Pr. vulgaris XK Denken; assay: as above; type: cell-based, Proteus vulgaris; conditions: Proteus vulgaris; Gram -; read-out: M.I.C.
[8] = test system: Haemophilus influenzae IID 986; assay: as above; type: cell-based; conditions: Haemophilus influenzae, IID986; Gram -; read-out: M.I.C.
[9] = test system: Neisseria perflava IID 856; assay: as above; type: cell-based; conditions: Neisseria perflava, IID856; Gram -; read-out: M.I.C.
[10] = test system: Pseudomonas aeruginosa V-1; assay: as above; type: cell-based; conditions: Pseudomonas aeruginosa, V1; Gram -; read-out: M.I.C.
[11] = test system: Ps. aeruginosa IID 1210; assay: as above; type: cell-based, Pseudomonas aeruginosa; conditions: Pseudomonas aeruginosa, IID1210; Gram -; read-out: M.I.C.
[12] = Chelate formation with ferric ion; type: physicochemical; conditions: one third molar equivalent of ferric chloride hexahydrate, molar equivalent of sodium hydroxide, water
Text: It is known that most of drugs such as Quinoform and Ethambutol which form chelates with metal ions in vivo produce undesirable side effects.

[13] = test system: Pseudomonas aeruginosa IID 1210; assay: Preventive effect against systemic infection with Pseudomonas aeruginosa in mice; type: in vivo, Pseudomonas aeruginosa; mice (ddY, male)
Method: Systemic infection was produced by inoculating male mice (strain: ddY, 6 weeks old, body weight: 28-33g) in intraperitoneally with Pseudomonas aeruginosa IID 1210 suspended in 0.5 ml of Brain heart infusion broth (Eiken) containing 5% mucin. […] Each of these test materials was administered to the mice twice, immediately after and then 6 hours after the inoculation, and the therapeutic effect of each compounds was judged from the survival rate.
(1) Miller L. C. and M. L. Tainter: Estimation of the ED50 and its error by means of logarithmic-probit graph paper Proc. Soc. Exp. Biol. Med. 57 261-264 (1944)
(2) Litchfield J. T. and F. Wilcoxon: A simplified method of evaluating dose - effect J. Pharmacol. 92 99-113 (1948)

[14] = test system: Escherichia coli NIHJ JC-2; assay: Influence of liver homogenate on antibacterial activity; type: cell-based
Method: (§1) Nutrient agar was heated and melted. […] The diameter of the inhibition zone was measured.

[15] = test system: Escherichia coli NIHJ JC-2; assay: Influence of rat bile on antibacterial activity; type: cell-based; conditions: bile of rats
Method: as §1

[16] = Biliary excretion in rats after a single oral administration of 50 mg/kg; conditions: rat, in vivo, po, 50 mg/kg
[17] = in vivo; conditions: rat, po, 50 mg/kg
Method: (§2) Nutrient agar was heated and melted. Escherichia coli NIHJ JC-2 was added to melted agar, and well mixed, and 5 ml of the mixture was placed in Petri dish. Penicylinders were placed on the solidified agar, and the cylinder was filled with serum sample. The plate was placed in the incubator of 37° C. for 20 hours. The diameter of the inhibition zone was measured.
(§3) The tissue homogenates were prepared with 1:4 homogenates in M/15 phosphate buffer (pH 7.5).

[18] = Serum concentrations at 30 min. after a single oral administration in rats; conditions: rat
[19] = Concentrations in tissues after a single oral administration of 50 mg/kg in rats; conditions: rat; for Tissue level, liver (free concentration): 50 mg/kg oral, mean ± S.E.
Method: as §2, §3

CCn1cc(C(=O)O)c(=O)c2cc(F)c(N3CCNCC3)cc21 [Compound (II), 1-ethyl-6-fluoro-1,4-dihydro-7-(1-piperazinyl)-4-oxoquinoline-3-carboxylicacid]
MIC [1]: 0.39 µg/mL (≈ 1.22 µM)
MIC [2]: 3.13 µg/mL (≈ 9.8 µM)
MIC [3]: 12.5 µg/mL (≈ 39.1 µM)
MIC [4]: 0.1 µg/mL (≈ 0.313 µM)
MIC [5]: 0.05 µg/mL (≈ 0.157 µM)
MIC [6]: 0.05 µg/mL (≈ 0.157 µM)
MIC [7]: 0.2 µg/mL (≈ 0.626 µM)
MIC [8]: 0.05 µg/mL (≈ 0.157 µM)
MIC [9]: 0.05 µg/mL (≈ 0.157 µM)
MIC [10]: 0.39 µg/mL (≈ 1.22 µM)
MIC [11]: 1.56 µg/mL (≈ 4.89 µM)
chelate compound with ferric ion [12]: did not give any chelate compound when treated with ferric ion
ED90 ([13]; Pseudomonas aeruginosa, IID1210): 185 mg/kg
ED50 ([13]; Pseudomonas aeruginosa, IID1210, po, 6 h, read-out: ED50 (95% confidence limit)): 98 mg/kg
protection against systemic infection (in words) ([13]; mice, listed as EXAMPLE 2): effectively protected the mice from Pseudomonas aeruginosa infection; also recorded: more potent than pipemidic acid and carbenicillin
antibacterial activity in presence of liver homogenate (in words) [14]: decreased by liver and kidney homogenate
antibacterial activity in presence of bile (in words) [15]: not influenced by bile of rats
biliary levels and cumulative excretion (in words) [16]: more excellent than those of nalidixic acid and pipemidic acid
concentration at 3 h [16]: 31000 ± 3500 ng/mL
concentration at 6 h [16]: 26400 ± 3200 ng/mL
concentration at 24 h [16]: 18900 ± 1600 ng/mL
concentration at 27 h [16]: 6700 ± 900 ng/mL
dose excreted at 3 h [16]: 0.6 ± 0.06%
dose excreted at 6 h [16]: 1.02 ± 0.11%
dose excreted at 24 h [16]: 2.43 ± 0.23%
dose excreted at 27 h [16]: 2.5 ± 0.23%
concentration at 0.5 h [17]: 11100 ± 2100 ng/g
concentration at 1 h [17]: 10300 ± 2000 ng/g
concentration at 2 h [17]: 6500 ± 900 ng/g
concentration at 4 h [17]: 3500 ± 900 ng/g
concentration at 6 h [17]: 1400 ± 100 ng/g
concentration at 0.5 h ([18]; 25 mg/kg): 310 ± 40 ng/mL
concentration at 0.5 h ([18]; 50 mg/kg): 870 ± 110 ng/mL
concentration at 0.5 h ([18]; 100 mg/kg): 1420 ± 230 ng/mL
concentration at 0.5 h ([18]; 200 mg/kg): 2230 ± 300 ng/mL
concentration at 0.5 h ([18]; 400 mg/kg): 3370 ± 350 ng/mL
Tissue level, liver (free concentration) ([19]; 0.5 hrs.): 4.1 ± 0.9 µg/g
Tissue level, liver (free concentration) ([19]; 1 hr.): 3.7 ± 0.6 µg/g
Tissue level, liver (free concentration) ([19]; 2 hrs.): 2.5 ± 0.5 µg/g
Tissue level, liver (free concentration) ([19]; 4 hrs.): 1.2 ± 0.2 µg/g
Tissue level, liver (free concentration) ([19]; 6 hrs.): 0.7 ± 0.1 µg/g
concentration at 0.5 h ([19]; liver, po, 50 mg/kg): 9000 ± 1900 ng/g
concentration at 1 h ([19]; liver, po, 50 mg/kg): 7900 ± 1200 ng/g
concentration at 2 h ([19]; liver, po, 50 mg/kg): 5400 ± 1000 ng/g
concentration at 4 h ([19]; liver, po, 50 mg/kg): 2600 ± 400 ng/g
concentration at 6 h ([19]; liver, po, 50 mg/kg): 1500 ± 200 ng/g
